Results published in patent publication US11773062B2, “Deuterated compounds” (priority 2021, dated 2023).
Read-outs that look alike come from different tables or passages of the source.

What was measured:
CYP1A2 = molecular target: T1, CYP1A2 (Homo sapiens, UniProt P05177); assay: in vitro; conditions: E. coli CYPEX membranes, 100 pmol/mL CYP
T1 sequence (P05177 1-516): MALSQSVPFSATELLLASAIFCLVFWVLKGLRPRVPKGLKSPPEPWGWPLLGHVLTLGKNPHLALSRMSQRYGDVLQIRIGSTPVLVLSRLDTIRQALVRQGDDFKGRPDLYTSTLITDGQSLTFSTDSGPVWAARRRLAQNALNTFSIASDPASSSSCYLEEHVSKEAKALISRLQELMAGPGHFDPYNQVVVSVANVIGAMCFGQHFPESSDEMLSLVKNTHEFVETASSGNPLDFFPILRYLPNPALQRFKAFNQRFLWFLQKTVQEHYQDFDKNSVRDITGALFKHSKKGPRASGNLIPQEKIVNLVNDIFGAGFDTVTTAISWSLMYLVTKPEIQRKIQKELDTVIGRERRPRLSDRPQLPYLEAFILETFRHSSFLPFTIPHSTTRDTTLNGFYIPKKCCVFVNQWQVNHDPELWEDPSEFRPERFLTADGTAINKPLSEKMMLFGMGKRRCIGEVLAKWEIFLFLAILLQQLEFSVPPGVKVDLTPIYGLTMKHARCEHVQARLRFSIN
Method: (§1) Samples were taken at predetermined time points.
(§2) Samples were then centrifuged at −4° C.
(§3) Positive control markers are as specified in Table 11.

CYP2B6 = molecular target: T2, CYP2B6 (Homo sapiens, UniProt P20813); assay: in vitro; conditions: E. coli CYPEX membranes, 100 pmol/mL CYP
T2 sequence (P20813 1-491): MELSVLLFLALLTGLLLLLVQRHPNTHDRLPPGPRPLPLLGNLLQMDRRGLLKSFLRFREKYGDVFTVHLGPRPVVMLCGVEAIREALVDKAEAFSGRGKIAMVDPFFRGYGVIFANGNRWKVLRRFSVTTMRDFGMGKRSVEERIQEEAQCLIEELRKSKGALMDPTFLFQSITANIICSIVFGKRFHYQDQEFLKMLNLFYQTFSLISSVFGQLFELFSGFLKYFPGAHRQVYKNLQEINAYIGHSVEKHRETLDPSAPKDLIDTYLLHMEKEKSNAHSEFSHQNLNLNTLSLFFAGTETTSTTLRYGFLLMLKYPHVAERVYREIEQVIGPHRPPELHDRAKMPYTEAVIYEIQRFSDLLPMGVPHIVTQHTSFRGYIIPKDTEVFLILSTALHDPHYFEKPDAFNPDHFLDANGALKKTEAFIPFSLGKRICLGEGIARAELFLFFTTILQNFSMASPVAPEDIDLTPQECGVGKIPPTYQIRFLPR
Method: as §1, §2, §3

CYP2C8 = molecular target: T3, CYP2C8 (Homo sapiens, UniProt P10632); assay: in vitro; conditions: E. coli CYPEX membranes, 100 pmol/mL CYP
T3 sequence (P10632 1-490): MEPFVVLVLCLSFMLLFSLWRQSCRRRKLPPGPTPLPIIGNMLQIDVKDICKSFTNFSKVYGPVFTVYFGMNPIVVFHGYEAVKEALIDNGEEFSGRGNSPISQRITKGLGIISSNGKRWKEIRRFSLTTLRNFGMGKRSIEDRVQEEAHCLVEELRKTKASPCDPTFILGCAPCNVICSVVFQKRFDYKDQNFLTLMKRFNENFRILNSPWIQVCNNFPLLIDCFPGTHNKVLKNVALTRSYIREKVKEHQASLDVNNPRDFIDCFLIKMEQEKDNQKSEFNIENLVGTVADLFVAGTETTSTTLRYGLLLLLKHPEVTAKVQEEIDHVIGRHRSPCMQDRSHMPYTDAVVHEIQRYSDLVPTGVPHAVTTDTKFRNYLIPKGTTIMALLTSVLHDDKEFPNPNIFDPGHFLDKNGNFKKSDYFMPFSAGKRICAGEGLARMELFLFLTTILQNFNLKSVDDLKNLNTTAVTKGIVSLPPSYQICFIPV
Method: as §1, §2, §3

CYP3A5 = CYP3A5 (Homo sapiens, UniProt P20815); assay: in vitro; conditions: E. coli CYPEX membranes, 100 pmol/mL CYP
Sequence of CYP3A5 (P20815 whole entry): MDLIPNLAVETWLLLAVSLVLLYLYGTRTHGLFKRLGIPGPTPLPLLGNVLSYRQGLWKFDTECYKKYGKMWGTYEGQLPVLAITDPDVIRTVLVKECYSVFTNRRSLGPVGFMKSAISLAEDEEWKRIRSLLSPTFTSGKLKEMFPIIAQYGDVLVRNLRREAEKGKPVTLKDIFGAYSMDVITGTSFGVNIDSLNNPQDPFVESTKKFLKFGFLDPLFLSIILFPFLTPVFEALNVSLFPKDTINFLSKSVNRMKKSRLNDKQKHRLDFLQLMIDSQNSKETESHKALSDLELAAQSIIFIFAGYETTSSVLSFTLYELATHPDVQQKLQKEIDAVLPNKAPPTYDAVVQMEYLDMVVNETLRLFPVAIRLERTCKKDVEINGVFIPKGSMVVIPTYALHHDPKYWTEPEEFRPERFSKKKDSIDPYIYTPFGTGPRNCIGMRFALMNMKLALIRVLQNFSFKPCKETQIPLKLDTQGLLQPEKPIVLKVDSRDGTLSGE
Method: as §1, §2, §3

CYP2C19 = CYP2C19 (Homo sapiens, UniProt P33261); assay: CYP phenotyping, CYP bactosomes; conditions: for half-life, CYP isoform 2C19 / intrinsic clearance, CYP isoform 2C19: E. coli CYPEX membranes, 100 pmol/mL CYP; for projected scaled intrinsic clearance, CYP isoform 2C19: scaled by estimated CYP abundance in human liver microsomes (0.009 nmol CYP/mg); for substrate for CYP2C19: CYP phenotyping
Sequence of CYP2C19 (P33261 whole entry, canonical isoform): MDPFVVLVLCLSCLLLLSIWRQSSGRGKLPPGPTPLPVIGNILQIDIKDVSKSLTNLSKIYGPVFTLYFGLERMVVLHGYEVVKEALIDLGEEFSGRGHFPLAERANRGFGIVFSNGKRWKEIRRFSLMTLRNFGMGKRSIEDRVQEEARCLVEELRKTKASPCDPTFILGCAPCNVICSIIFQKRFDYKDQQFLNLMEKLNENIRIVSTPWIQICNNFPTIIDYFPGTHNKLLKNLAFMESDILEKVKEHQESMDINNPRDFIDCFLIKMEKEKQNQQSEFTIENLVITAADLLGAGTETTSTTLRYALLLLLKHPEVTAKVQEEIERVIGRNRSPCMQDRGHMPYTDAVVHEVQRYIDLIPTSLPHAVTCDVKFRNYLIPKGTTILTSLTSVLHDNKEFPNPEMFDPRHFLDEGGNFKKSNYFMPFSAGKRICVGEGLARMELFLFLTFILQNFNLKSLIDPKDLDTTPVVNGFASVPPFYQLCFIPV
Method: as §1, §2, §3

CYP2C9 = CYP2C9 (Homo sapiens, UniProt P11712); assay: CYP phenotyping, CYP bactosomes; conditions: E. coli CYPEX membranes, 100 pmol/mL CYP
Sequence of CYP2C9 (P11712 whole entry): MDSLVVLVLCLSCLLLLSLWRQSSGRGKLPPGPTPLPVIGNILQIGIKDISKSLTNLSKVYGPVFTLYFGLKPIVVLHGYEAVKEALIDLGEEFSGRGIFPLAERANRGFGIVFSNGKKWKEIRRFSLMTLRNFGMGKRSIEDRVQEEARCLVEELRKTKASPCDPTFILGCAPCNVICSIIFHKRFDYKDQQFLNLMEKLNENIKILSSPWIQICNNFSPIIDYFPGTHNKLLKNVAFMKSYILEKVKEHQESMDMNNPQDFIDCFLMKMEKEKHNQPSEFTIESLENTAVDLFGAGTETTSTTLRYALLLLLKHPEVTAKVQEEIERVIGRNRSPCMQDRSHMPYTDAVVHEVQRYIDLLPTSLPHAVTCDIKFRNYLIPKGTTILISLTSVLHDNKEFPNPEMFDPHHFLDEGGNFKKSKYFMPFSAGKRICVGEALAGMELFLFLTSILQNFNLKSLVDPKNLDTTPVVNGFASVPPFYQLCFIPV
Method: as §1, §2, §3

CYP3A4 = CYP3A4 (Homo sapiens, UniProt P08684); assay: CYP phenotyping, CYP bactosomes; conditions: E. coli CYPEX membranes, 100 pmol/mL CYP
Sequence of CYP3A4 (P08684 whole entry): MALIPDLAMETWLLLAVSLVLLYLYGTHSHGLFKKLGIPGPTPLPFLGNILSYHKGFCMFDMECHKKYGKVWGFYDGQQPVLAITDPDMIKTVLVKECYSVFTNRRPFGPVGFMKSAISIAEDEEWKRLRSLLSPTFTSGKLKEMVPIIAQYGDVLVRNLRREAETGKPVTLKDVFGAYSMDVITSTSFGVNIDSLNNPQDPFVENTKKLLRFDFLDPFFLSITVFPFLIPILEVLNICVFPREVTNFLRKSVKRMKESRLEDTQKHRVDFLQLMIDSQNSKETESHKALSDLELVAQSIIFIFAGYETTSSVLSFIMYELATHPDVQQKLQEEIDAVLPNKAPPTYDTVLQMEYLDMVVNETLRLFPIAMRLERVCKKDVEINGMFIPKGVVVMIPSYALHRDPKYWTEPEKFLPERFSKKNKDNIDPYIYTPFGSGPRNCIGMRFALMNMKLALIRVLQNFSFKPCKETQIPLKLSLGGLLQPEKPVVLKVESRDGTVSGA
Method: as §1, §2, §3

CYP2D6 [1] = molecular target: T4, CYP2D6 (Homo sapiens, UniProt P10635); assay: CYP phenotyping, CYP bactosomes; conditions: for half-life, CYP isoform 2D6 / intrinsic clearance, CYP isoform 2D6: E. coli CYPEX membranes, 100 pmol/mL CYP; for projected scaled intrinsic clearance, CYP isoform 2D6: scaled by estimated CYP abundance in human liver microsomes (0.012 nmol CYP/mg); for substrate for CYP2D6: CYP phenotyping
T4 sequence (P10635 whole entry, canonical isoform): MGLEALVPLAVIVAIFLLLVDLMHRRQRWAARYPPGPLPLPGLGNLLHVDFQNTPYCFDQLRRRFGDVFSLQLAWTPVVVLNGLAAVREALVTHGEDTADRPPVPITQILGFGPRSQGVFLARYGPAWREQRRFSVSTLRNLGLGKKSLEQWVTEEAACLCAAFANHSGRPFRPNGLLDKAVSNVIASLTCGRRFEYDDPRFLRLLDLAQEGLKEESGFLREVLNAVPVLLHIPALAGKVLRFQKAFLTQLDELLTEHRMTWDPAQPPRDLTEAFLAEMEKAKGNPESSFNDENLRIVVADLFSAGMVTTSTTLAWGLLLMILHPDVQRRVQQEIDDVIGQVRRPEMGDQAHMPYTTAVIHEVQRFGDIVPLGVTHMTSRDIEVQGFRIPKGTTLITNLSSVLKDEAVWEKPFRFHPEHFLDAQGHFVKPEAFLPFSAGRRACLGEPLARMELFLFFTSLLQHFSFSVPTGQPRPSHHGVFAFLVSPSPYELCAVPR
Method: (§4) The CYPs used in this study are heterologously expressed in E. coli and purchased as individualised forms (CYP bactosomes) from CYPEX. Bactosomes contain recombinant CYP isoenzymes combined with CYP reductase leading to a higher specific activity than liver microsomes.
(§5) Phosphate buffer is prepared at 0.1 M, pH 7.4 by combining 0.1 M Na2HPO4 and 0.1 M KH2PO4 solutions.
(§6) Nicotinamide adenine dinucleotide 2′-phosphate reduced tetrasodium salt hydrate (NADPH) is prepared at 10 m<in 0.1 M phosphate buffer (pH 7.4).
(§7) The individual CYP bactosomes are thawed at room temperature undiluted to 200 pmol/mL and 0.1 M phosphate buffer.
(§8) Standard final incubation conditions are 1-3 μM compound in a buffer containing 100 pmol/mL CYP bactosome, 1% (v/v) DMSO.
(§9) The elimination rate constant (k) is calculated using the slope of a ln (MS peak area or response—if internal standard is used) vs. time plot of the test compounds and markers.
(§10) Intrinsic clearance in μL/min/nmol CYP is calculated using the following equation: Clint=−1000 k/CYP concentration
(§11) Projected CYP isoform intrinsic clearance accounting for estimated CYP abundance in human liver microsomes (μL/min/mg microsomal protein)* is calculated using the following equation: Projected set isoform intrinsic clearance=Estimated CYP abundance*Clint * Estimated CYP abundance is taken as an average from three literature references 1, 2 3 and the abundances used are as follows (nmol CYP/mg Human Liver Microsomal Protein):

[2] = Human liver mitochondrial fraction intrinsic clearance of SPL026, SPL028i, SPL028iii, SPL028viii; type: in vitro ADME; conditions: 0.5 mg/mL human liver mitochondrial fraction (Table 10)
Excerpt: Human Liver Mitochondrial (HLMt) fractions contain high quantities of MAO enzymes and therefore, provide a useful tool to measure the clearance of MAO substrates.

CYP2D6 [3] = molecular target: T4, CYP2D6
Method: as §4, §5, §6, §7, §8, §9, §10, §11

[4] = system: mouse (male CD-1) hepatocytes; assay: In vitro mouse hepatocytic intrinsic clearance; conditions: mouse CD-1 hepatocytes 0.367 million cells/mL, 5 μM (Table 8)
[5] = system: human (mixed gender) hepatocytes; assay: In vitro intrinsic clearance in human hepatocytes with and without MAO-A/B inhibitor combination (first experiment); conditions: for % change in half-life, MAO inhibitors vs no inhibitors / % change in intrinsic clearance, MAO inhibitors vs no inhibitors: human hepatocytes (Table 5); for Intrinsic clearance, without inhibitors: without MAO-A/B inhibitor combination (Table 5)
Method: Standard final incubation conditions are 1 μM compound in buffer containing nominally ˜0.5 million viable cells/mL, ˜0.9% (v/v) acetonitrile (MeCN) and ˜0.1% (v/v) DMSO (specific assay concentrations outlined above, section 2).
Samples are then centrifuged at 4° C.

CYP2D6 [6] = molecular target: T4, CYP2D6; assay: in vitro; conditions: recombinant enzyme, pH 7.4
Method: as §4, §5, §6, §7, §8, §9, §10, §11

[7] = human hepatocytes, with 100 nM clorgyline + 100 nM deprenyl/selegiline (Table 3)
[8] = human hepatocytes, with MAO-A/B inhibitor combination (Table 5)

Structure (SMILES): CN(C)CCc1c[nH]c2ccccc12 [DMT in SPL028i]
- half-life, CYP isoform 1A2 (CYP1A2): >4 h
- half-life, CYP isoform 2B6 (CYP2B6): >4 h
- half-life, CYP isoform 2C8 (CYP2C8): >4 h
- intrinsic clearance, CYP isoform 2C8 (CYP2C8): <29 μL/min/nmol CYP
- half-life, CYP isoform 3A5 (CYP3A5): >4 h
- intrinsic clearance, CYP isoform 3A5 (CYP3A5): <29 μL/min/nmol CYP
- half-life, CYP isoform 2C19 (CYP2C19): 2.93 h
- intrinsic clearance, CYP isoform 2C19 (CYP2C19): 40 μL/min/nmol CYP
- projected scaled intrinsic clearance, CYP isoform 2C19 (CYP2C19): 0.4 μl/min/mg microsomal protein
- half-life, CYP isoform 2C9 (CYP2C9): >4 h
- intrinsic clearance, CYP isoform 2C9 (CYP2C9): <29 μL/min/nmol CYP
- half-life, CYP isoform 3A4 (CYP3A4): >4 h
- intrinsic clearance, CYP isoform 3A4 (CYP3A4): <29 μL/min/nmol CYP
- half-life, CYP isoform 2D6 (CYP2D6 [1]): 0.167 h
- intrinsic clearance, CYP isoform 2D6 (CYP2D6 [1]): 687 μL/min/nmol CYP
- projected scaled intrinsic clearance, CYP isoform 2D6 (CYP2D6 [1]): 8.1 μl/min/mg microsomal protein

Structure (SMILES): [2H]C([2H])(Cc1c[nH]c2ccccc12)N(C)C [SPL028i, α,α,-bis-deuterium-N,N-dimethyltryptamine]
- Intrinsic Clearance [2]: 44.6 μL/min/mg protein
- half-life, CYP isoform 1A2 (CYP1A2): >4 h
- intrinsic clearance, CYP isoform 1A2 (CYP1A2): <29 μL/min/nmol CYP
- half-life, CYP isoform 2B6 (CYP2B6): >4 h
- intrinsic clearance, CYP isoform 2B6 (CYP2B6): <29 μL/min/nmol CYP
- half-life, CYP isoform 2C8 (CYP2C8): >4 h
- intrinsic clearance, CYP isoform 2C8 (CYP2C8): <29 μL/min/nmol CYP
- half-life, CYP isoform 3A5 (CYP3A5): >4 h
- intrinsic clearance, CYP isoform 3A5 (CYP3A5): <29 μL/min/nmol CYP
- substrate for CYP2C19 (CYP2C19): substrates
- half-life, CYP isoform 2C19 (CYP2C19): 3 h
- intrinsic clearance, CYP isoform 2C19 (CYP2C19): 39 μL/min/nmol CYP
- projected scaled intrinsic clearance, CYP isoform 2C19 (CYP2C19): 0.3 μl/min/mg microsomal protein
- half-life, CYP isoform 2C9 (CYP2C9): >4 h
- intrinsic clearance, CYP isoform 2C9 (CYP2C9): <29 μL/min/nmol CYP
- half-life, CYP isoform 3A4 (CYP3A4): >4 h
- intrinsic clearance, CYP isoform 3A4 (CYP3A4): <29 μL/min/nmol CYP
- projected scaled intrinsic clearance, CYP isoform 2D6 (CYP2D6 [3]): 9.4 μl/min/mg microsomal protein
- substrate for CYP2D6 (CYP2D6 [1]): substrates
- half-life, CYP isoform 2D6 (CYP2D6 [1]): 0.15 h
- intrinsic clearance, CYP isoform 2D6 (CYP2D6 [1]): 793 μL/min/nmol CYP
- w Half-life [4]: 0.323 h
- w Intrinsic clearance [4]: 97.4 μL/min/million cells
- % change in half-life, MAO inhibitors vs no inhibitors [5]: −5.33%
- % change in intrinsic clearance, MAO inhibitors vs no inhibitors [5]: 4.67%
- Intrinsic clearance, with inhibitors [5, 7]: 7.50 μL/min/million cells
- Half-life, with inhibitors [5, 8]: 2.8292 h
- Intrinsic clearance, with inhibitors [5, 8]: 7.5 μL/min/million cells
- Half-life, with inhibitors ([5]; human hepatocytes, with MAO-A/B inhibitors (Table 4; unit given only in Table 5)): 2.8292 h
- quicker intrinsic clearance in the presence of MAO inhibitors ([5]; human hepatocytes, with vs without MAO inhibitors): ~5%
- Intrinsic clearance, without inhibitors ([5]; human hepatocytes): 7.15 μL/min/million cells

Structure (SMILES): CN(C)CCc1c[nH]c2ccccc12 [DMT in SPL028ii]
- half-life, CYP isoform 1A2 (CYP1A2): >4 h
- half-life, CYP isoform 2B6 (CYP2B6): >4 h
- half-life, CYP isoform 2C8 (CYP2C8): >4 h
- intrinsic clearance, CYP isoform 2C8 (CYP2C8): <29 μL/min/nmol CYP
- half-life, CYP isoform 3A5 (CYP3A5): >4 h
- intrinsic clearance, CYP isoform 3A5 (CYP3A5): <29 μL/min/nmol CYP
- half-life, CYP isoform 2C19 (CYP2C19): 2.7 h
- intrinsic clearance, CYP isoform 2C19 (CYP2C19): 43 μL/min/nmol CYP
- projected scaled intrinsic clearance, CYP isoform 2C19 (CYP2C19): 0.4 μl/min/mg microsomal protein
- half-life, CYP isoform 2C9 (CYP2C9): >4 h
- intrinsic clearance, CYP isoform 2C9 (CYP2C9): <29 μL/min/nmol CYP
- half-life, CYP isoform 3A4 (CYP3A4): >4 h
- intrinsic clearance, CYP isoform 3A4 (CYP3A4): <29 μL/min/nmol CYP
- half-life, CYP isoform 2D6 (CYP2D6 [1]): 0.15 h
- intrinsic clearance, CYP isoform 2D6 (CYP2D6 [1]): 803 μL/min/nmol CYP
- projected scaled intrinsic clearance, CYP isoform 2D6 (CYP2D6 [1]): 9.5 μl/min/mg microsomal protein

Structure (SMILES): COc1ccc2c(c1)[C@]13CCCC[C@@H]1[C@H](C2)N(C)CC3 [Dextromethorphan]
- intrinsic clearance, CYP isoform 2D6 (CYP2D6 [3]; human, recombinant enzyme, pH 7.4): 2686 μL/min/nmol CYP
- half-life (CYP2D6 [6]): 3 min

Structure (SMILES): [2H]C([2H])(Cc1c[nH]c2ccccc12)N(C)C [SPL028ii, α,α,-bis-deuterium-N,N-dimethyltryptamine]
- half-life, CYP isoform 1A2 (CYP1A2): >4 h
- intrinsic clearance, CYP isoform 1A2 (CYP1A2): <29 μL/min/nmol CYP
- half-life, CYP isoform 2B6 (CYP2B6): >4 h
- intrinsic clearance, CYP isoform 2B6 (CYP2B6): <29 μL/min/nmol CYP
- half-life, CYP isoform 2C8 (CYP2C8): >4 h
- intrinsic clearance, CYP isoform 2C8 (CYP2C8): <29 μL/min/nmol CYP
- half-life, CYP isoform 3A5 (CYP3A5): >4 h
- intrinsic clearance, CYP isoform 3A5 (CYP3A5): <29 μL/min/nmol CYP
- substrate for CYP2C19 (CYP2C19): substrates
- half-life, CYP isoform 2C19 (CYP2C19): 2.93 h
- intrinsic clearance, CYP isoform 2C19 (CYP2C19): 39 μL/min/nmol CYP
- projected scaled intrinsic clearance, CYP isoform 2C19 (CYP2C19): 0.4 μl/min/mg microsomal protein
- half-life, CYP isoform 2C9 (CYP2C9): >4 h
- intrinsic clearance, CYP isoform 2C9 (CYP2C9): <29 μL/min/nmol CYP
- half-life, CYP isoform 3A4 (CYP3A4): >4 h
- intrinsic clearance, CYP isoform 3A4 (CYP3A4): <29 μL/min/nmol CYP
- projected scaled intrinsic clearance, CYP isoform 2D6 (CYP2D6 [3]): 9.5 μl/min/mg microsomal protein
- substrate for CYP2D6 (CYP2D6 [1]): substrates
- half-life, CYP isoform 2D6 (CYP2D6 [1]): 0.15 h
- intrinsic clearance, CYP isoform 2D6 (CYP2D6 [1]): 801 μL/min/nmol CYP
- w Half-life [4]: 0.307 h
- w Intrinsic clearance [4]: 102.7 μL/min/million cells
- % change in half-life, MAO inhibitors vs no inhibitors [5]: 14.69%
- % change in intrinsic clearance, MAO inhibitors vs no inhibitors [5]: −19.13%
- Intrinsic clearance, with inhibitors [5, 7]: 8.78 μL/min/million cells
- Intrinsic clearance, with inhibitors [5, 8]: 8.78 μL/min/million cells
- Intrinsic clearance, without inhibitors ([5]; human hepatocytes): 10.46 μL/min/million cells
